Where a name gives a salt, the structure may show the parent alone. Read-outs that look alike come from different tables or passages of the source.
Legend:
[1] = test system: p53 signaling (p53RE-bla HCT-116 cells); assay: cells; type: cell-based; details: for EC50 / Emax: Homo sapiens
[2] = test system: p53 signaling (p53RE-bla HCT-116 cells)
[3] = test system: p53 signaling (p53RE-bla HCT-116 cells); remark: listed apart in the source
[4] = test system: p53 signaling (p53RE-bla HCT-116 cells); assay: cells; details: Homo sapiens
[5] = HCT-116, read-out: EC50, p53 activation, cherry pick confirmation
[6] = HCT-116, read-out: EC50, p53 activation, primary screening
[7] = HCT-116, read-out: Efficacy, p53 activation, cherry pick confirmation
[8] = HCT-116, read-out: Efficacy, p53 activation, primary screening
[9] = HCT-116, read-out: p53 activation EC50, HLM
[10] = HCT-116, read-out: p53 activation EC50
[11] = HCT-116, read-out: p53 activation efficacy

`Oc1c(Cl)c(Cl)cc(Cl)c1Cl` [2,3,5,6-Tetrachlorophenol] was tested. Which EC50 [1, 5] did it give?
The EC50 was 29.5 µM.

And the EC50 [1, 6]?
The EC50 was 24.6 µM.

And the Emax [1, 7]?
The Emax was 31.3%.

What about the Emax [1, 8] of the same compound?
Its Emax is 36.3%.

What about the “EC50, p53 activation, cherry pick confirmation” value [2] of the same compound?
The value was “inactive”.

What about the “EC50, p53 activation, primary screening” value [2] of the same compound?
Its value is “inactive”.

What about the “Efficacy, p53 activation, cherry pick confirmation” value [2] of the same compound?
The value was “inactive”.

What about the “Efficacy, p53 activation, primary screening” value [2] of the same compound?
Its value is “inactive”.

And the “EC50, p53 activation, cherry pick confirmation” value [3]?
Its value is “inactive”.

And the “Efficacy, p53 activation, cherry pick confirmation” value [3]?
Its value is “inactive”.

What about the “EC50, viability, cherry pick confirmation” value (p53RE-bla HCT-116 cells) of the same compound?
Its value is “inactive”.

What about the “EC50, viability, primary screening” value (p53RE-bla HCT-116 cells) of the same compound?
Its value is “inactive”.

And the “Efficacy, viability, cherry pick confirmation” value (p53RE-bla HCT-116 cells)?
Its value is “inactive”.

And the “Efficacy, viability, primary screening” value (p53RE-bla HCT-116 cells)?
Its value is “inactive”.

What about the EC50 [4, 6] of the same compound?
The EC50 was 21 µM.

What about the Emax [4, 8] of the same compound?
Its Emax is 35.1%.

Which EC50 [1, 5] does the source give for `Oc1c(Cl)c(Cl)c(Cl)c(Cl)c1Cl` [Pentachlorophenol] here?
The EC50 was 14.1 µM.

What about the EC50 [1, 6] of the same compound?
The EC50 was 13.4 µM.

And the Emax [1, 7]?
The Emax was 32.5%.

What about the Emax [1, 8] of the same compound?
The Emax was 47.3%.

And the “EC50, p53 activation, cherry pick confirmation” value [2]?
Its value is “inactive”.

And the “EC50, p53 activation, primary screening” value [2]?
The value was “inactive”.

What about the “Efficacy, p53 activation, cherry pick confirmation” value [2] of the same compound?
Its value is “inactive”.

And the “Efficacy, p53 activation, primary screening” value [2]?
Its value is “inactive”.

And the “EC50, p53 activation, cherry pick confirmation” value [3]?
The value was “inactive”.

And the “Efficacy, p53 activation, cherry pick confirmation” value [3]?
Its value is “inactive”.

What about the “EC50, viability, cherry pick confirmation” value (p53RE-bla HCT-116 cells) of the same compound?
The value was “inactive”.

And the “EC50, viability, primary screening” value (p53RE-bla HCT-116 cells)?
Its value is “inactive”.

And the “Efficacy, viability, cherry pick confirmation” value (p53RE-bla HCT-116 cells)?
The value was “inactive”.

And the “Efficacy, viability, primary screening” value (p53RE-bla HCT-116 cells)?
The value was “inactive”.

What about the EC50 [4, 6] of the same compound?
The EC50 was 15.5 µM.

What about the Emax [4, 8] of the same compound?
Its Emax is 30.9%.

With `CNC(=O)Oc1ccc2c(c1)[C@]1(C)CCN(C)[C@@H]1N2C` [Physostigmine] as the compound, how does the “p53 activation EC50, No MS” value [1] read?
The value was “inactive”.

And the “p53 activation Efficacy, No MS” value [1]?
The value was “inactive”.

What about the “p53 activation EC50, RLM” value [2] of the same compound?
Its value is “inactive”.

What about the “p53 activation Efficacy, RLM” value [2] of the same compound?
Its value is “inactive”.

What about the “p53 activation EC50, HLM” value [3] of the same compound?
The value was “inactive”.

And the “Viability EC50, HLM” value (p53RE-bla HCT-116 cells)?
Its value is “inactive”.

What about the “Viability EC50, No MS” value (p53RE-bla HCT-116 cells) of the same compound?
The value was “inactive”.

And the “Viability EC50, RLM” value (p53RE-bla HCT-116 cells)?
Its value is “inactive”.

What about the “Viability Efficacy, HLM” value (p53RE-bla HCT-116 cells) of the same compound?
The value was “inactive”.

And the “Viability Efficacy, No MS” value (p53RE-bla HCT-116 cells)?
Its value is “inactive”.

And the “Viability Efficacy, RLM” value (p53RE-bla HCT-116 cells)?
The value was “inactive”.

What about the EC50 [4, 9] of the same compound?
Its EC50 is 7.07 µM.

With `CC(=O)NS(=O)(=O)c1ccc(N)cc1` [Sulfacetamide] as the compound, how does the “p53 activation EC50, No MS” value [1] read?
Its value is “inactive”.

And the “p53 activation Efficacy, No MS” value [1]?
Its value is “inactive”.

What about the “p53 activation EC50, RLM” value [2] of the same compound?
Its value is “inactive”.

What about the “p53 activation Efficacy, RLM” value [2] of the same compound?
The value was “inactive”.

And the “p53 activation EC50, HLM” value [3]?
Its value is “inactive”.

What about the “Viability EC50, HLM” value (p53RE-bla HCT-116 cells) of the same compound?
Its value is “inactive”.

What about the “Viability EC50, No MS” value (p53RE-bla HCT-116 cells) of the same compound?
Its value is “inactive”.

And the “Viability EC50, RLM” value (p53RE-bla HCT-116 cells)?
The value was “inactive”.

And the “Viability Efficacy, HLM” value (p53RE-bla HCT-116 cells)?
The value was “inactive”.

What about the “Viability Efficacy, No MS” value (p53RE-bla HCT-116 cells) of the same compound?
The value was “inactive”.

And the “Viability Efficacy, RLM” value (p53RE-bla HCT-116 cells)?
The value was “inactive”.

And the EC50 [4, 9]?
Its EC50 is 44.2 µM.

With `COP(=S)(OC)Oc1ccc(S(N)(=O)=O)cc1` [Cythioate] as the compound, how does the “p53 activation EC50, No MS” value [1] read?
The value was “inactive”.

And the “p53 activation Efficacy, No MS” value [1]?
Its value is “inactive”.

And the “p53 activation EC50, RLM” value [2]?
Its value is “inactive”.

What about the “p53 activation Efficacy, RLM” value [2] of the same compound?
The value was “inactive”.

What about the “p53 activation EC50, HLM” value [3] of the same compound?
Its value is “inactive”.

And the “Viability EC50, HLM” value (p53RE-bla HCT-116 cells)?
Its value is “inactive”.

And the “Viability EC50, No MS” value (p53RE-bla HCT-116 cells)?
Its value is “inactive”.

And the “Viability EC50, RLM” value (p53RE-bla HCT-116 cells)?
The value was “inactive”.

What about the “Viability Efficacy, HLM” value (p53RE-bla HCT-116 cells) of the same compound?
The value was “inactive”.

What about the “Viability Efficacy, No MS” value (p53RE-bla HCT-116 cells) of the same compound?
Its value is “inactive”.

And the “Viability Efficacy, RLM” value (p53RE-bla HCT-116 cells)?
The value was “inactive”.

And the EC50 [4, 9]?
Its EC50 is 3.59 µM.

What does the source list for `C[C@]12CC[C@H]3[C@@H](CC[C@@]45O[C@@H]4C(O)=C(C#N)C[C@]35C)[C@@H]1CC[C@@H]2O` [Trilostane]?
p53 activation EC50 [1]: inactive; EC50 [1, 10]: 44.1 µM; Emax [1, 11]: 98.3%; p53 activation EC50 [2]: inactive; p53 activation efficacy [2]: inactive; p53 activation EC50 [3]: inactive; Viability EC50 (p53RE-bla HCT-116 cells): inactive; Viability efficacy (p53RE-bla HCT-116 cells): inactive; EC50 [4, 10]: 41 µM; Emax [4, 11]: 53.3%

How did the “p53 activation EC50, No MS” value [1] turn out when `N=C(N)NC(=O)c1nc(Cl)c(N)nc1N` [Amiloride hydrochloride] was run?
Its value is “inactive”.

What about the “p53 activation Efficacy, No MS” value [1] of the same compound?
The value was “inactive”.

And the “p53 activation EC50, RLM” value [2]?
Its value is “inactive”.

What about the “p53 activation Efficacy, RLM” value [2] of the same compound?
Its value is “inactive”.

And the “p53 activation EC50, HLM” value [3]?
The value was “inactive”.

What about the “Viability EC50, HLM” value (p53RE-bla HCT-116 cells) of the same compound?
The value was “inactive”.

What about the “Viability EC50, No MS” value (p53RE-bla HCT-116 cells) of the same compound?
The value was “inactive”.

What about the “Viability EC50, RLM” value (p53RE-bla HCT-116 cells) of the same compound?
Its value is “inactive”.

What about the “Viability Efficacy, HLM” value (p53RE-bla HCT-116 cells) of the same compound?
The value was “inactive”.

And the “Viability Efficacy, No MS” value (p53RE-bla HCT-116 cells)?
The value was “inactive”.

And the “Viability Efficacy, RLM” value (p53RE-bla HCT-116 cells)?
The value was “inactive”.

What about the EC50 [4, 9] of the same compound?
The EC50 was 38.7 µM.
